Experimental data taken from US20230058961A1, “SUBSTITUTED HETEROCYCLICS WITH THERAPEUTIC ACTIVITY IN HIV” (New York Blood Center, Inc., priority 2019, published 2023).

Tests used:
[1] = test system: panel of HIV-1 Env Pseudoviruses (49 clones of clinical isolates, subtypes A, B, C, D, Arec); format: cell-based; details: 49 HIV-1 clones of clinical isolates
[2] = test system: TZM-bl cells; details: human, 3 days
Experimental: (§1) The anti-HIV-1 activity was assessed in a single-cycle assay by infecting TZM-bl indicator cells with the pseudovirus HIV-1 HXB2 according to established procedures (F. Curreli, Y. D. Kwon, D. S. Belov, R. R. Ramesh, A. V. Kurkin, A. Altieri, P. D. Kwong, A. K. Debnath, J Med Chem 2017, 60, 3124-3153; which is incorporated herein by reference for all that it teaches about the conduct and interpretation of the assay).
(§2) The cytotoxicity of the small polycyclic molecules in TZM-bl cells was determined by using the colorimetric method CellTiter 96® AQueous One Solution Cell Proliferation Assay (MTS) (Promega) following the manufacturer's instructions. Briefly, TZM-bl cells were platted in a 96-well tissue culture plate at 1×10^4/well and cultured at 37° C. Following overnight incubation, the cells were incubated with 100 μl of the compounds at graded concentrations and cultured for 3 days. The MTS reagent was added to the cells and incubated for 4 h at 37° C. The absorbance was recorded at 490 nm.

[3] = in vitro; details: human, CC50
Experimental: as §1, §2

SMILES	anti-HIV-1 activity against panel of HIV-1 Env pseudotypes (in words) [1]	CC50 [2]	CC50 at 3 days [3]
Cc1cc(-c2ccc(C(F)(F)F)cn2)[nH]c1C(=O)NC(CN)c1ncc(CO)s1 (stereo not shown) [Compound 8, N-(2-amino-1-(5-(hydroxymethyl)thiazol-2-yl)ethyl)-3-methyl-5-(5-(trifluoromethyl)pyridin-2-yl)-1H-pyrrole-2-carboxamide]	sub-micromolar	109 ± 2 µM	–
Cc1cc(-c2ccc(C(F)(F)F)cn2)[nH]c1C(=O)NC(CN)c1nc(CO)cs1 (stereo not shown) [Compound 33, N-(2-Amino-1-(4-(hydroxymethyl)thiazol-2-yl)ethyl)-3-methyl-5-(5-(trifluoromethyl)pyridin-2-yl)-1H-pyrrole-2-carboxamide]	sub-micromolar	–	85 ± 3 µM
